Experimental data from US10336788B2, “Inhibition of cardiac fibrosis in myocardial infarction” (Moerae Matrix, Inc., priority 2014, dated 2019).
No end group written: not given here.

Columns and labels:
mouse vein graft model = conditions: Muto et al. 2012; cited from earlier work
[1] = test system: primary cardiac fibroblasts; experiment: Caspase 3/7 activity in primary cardiac fibroblasts challenged with 1% hypoxia; format: cell-based, rat; conditions: 100 μM, 16 and 32 hours of hypoxia
Experimental: H9C2 is a myoblast cell line derived from rat myocardium obtained from ATCC® (CRL-1446, ATCC, Manassas, Va.) and cultured according to the recommended protocols. Briefly, cells were maintained at 37° C. with 5% CO2 in DMEM supplemented with 10% fetal bovine serum and antibiotics (100 U/ml penicillin, […] streptomycin) and split at a ratio of 1:4 using 0.05% trypsin every 36 hours. […]
Cells were rinsed in PMS and grown in DMEM (cat. #11966-025, Gibco) for 2 hours prior to initiating hypoxia (simulated ischemia). […] Three different time points were adopted for each of the three cell lines according to the severity of cell death under hypoxia determined by LDH release: for H9C2 cell line: 8 hr; 16 hr; 24 hr; for HL-1 cell line: 4 hr; 8 hr; 12 hr; for cardiac fibroblast cell line: 16 hr; 32 hr; 48 hr.
Cell death was first determined using an LDH release assay (cat. #630117, Clontech), according to the manufacturer's instructions. […] Caspase 3/7 activity was next determined using a commercial Caspase 3/7 activity kit (Cat. #G8091, Promega, Madison, Wis. 53711) in a 384 well plate (Cat. #781903, Greiner bio-one) according to the manufacturer's instructions. […] The resulting cell lysates (25 μl, with 0.6 ug total protein) and Caspase-Glo 3/7 Reagent were added to each well in a 1:1 ratio and the luminescence was read (CLARIOstar, BMG LABTECH GmbH). […]

MK2 = experiment: Immunoblot analysis of MK2 activity (HNRNPA0, total MK2, p-MK2) in primary cardiac fibroblasts; format: cell-based, rat
Experimental: Cells were rinsed in PMS and grown in DMEM (cat. #11966-025, Gibco) for 2 hours prior to initiating hypoxia (simulated ischemia). Hypoxia was induced by placing cells in a hypoxia chamber ([…] 150i, Thermo Scientific) in a mixture of 5% CO2/95% N2 to attain a 1% oxygen concentration, according to the manufacturer's instruction. […] The MMI-0100 peptide was added to the cells at the start of the ischemia time. Cells were cultured in 12 well plates. At the time of performing the experiments, all cultures were approximately 70-90% confluent. Three different time points were adopted for each of the three cell lines according to the severity of cell death under hypoxia determined by LDH release: for H9C2 cell line: 8 hr; 16 hr; 24 hr; for HL-1 cell line: 4 hr; 8 hr; 12 hr; for cardiac fibroblast cell line: 16 hr; 32 hr; 48 hr.
The left over cell lysates from the Caspase activity assay were used for the Western blots. […] After blocking with recommended blocking reagents for 1 h at the room temperature, the membranes were incubated overnight at 4° C. with primary antibodies in TBS-T, and then incubated with secondary antibodies conjugated with HRP in TBS-T. HNRNPA0, MAPK2, and phospho-MAPK2 proteins were detected using anti-HNRNPA0 (cat. #HPA036569, 1:1000, Sigma-Aldrich), anti-MAPKAPK2 (cat. #SAB4300553, Sigma-Aldrich), and anti-phospho-MAPKAPK2 (cat. #SAB4300241, 1:1000, Sigma-Aldrich). […]

YARAAARQARAKALARQLGVAA [MMI-0100]
inflammation and fibrosis in intimal hyperplasia (mouse vein graft model): inhibits inflammation and fibrosis
caspase 3/7 activity [1]: significantly enhanced
protein levels of MK2 and p-MK2 (MK2; compared to hypoxia alone): did not significantly differ
MK2 activity, as measured by HNRNPA0 protein levels (MK2; hypoxia, 16, 32, or 48 hours): did not change
